From ChEMBL document CHEMBL4706475, “Multiparameter Lead Optimization to Give an Oral Checkpoint Kinase 1 (CHK1) Inhibitor Clinical Candidate: (R)-5-((4-((Morpholin-2-ylmethyl)amino)-5-(trifluoromethyl)pyridin-2-yl)amino)pyrazine-2-carbonitrile (CCT245737)” (J Med Chem, 2016)
Converted amounts (≈) assume the structure as drawn.

What was measured:
in vivo [1] = settings: mouse, iv, 10 mg/kg
in vivo [2] = settings: mouse, iv, 10 mg/kg; remark: listed apart in the source
in vivo [3] = settings: mouse, iv, 10 mg/kg; remark: listed apart in the source
in vivo [4] = settings: mouse, po, 10 mg/kg
in vivo [5] = settings: mouse, iv, 5 mg/kg
in vivo [6] = settings: mouse, iv, 5 mg/kg; remark: listed apart in the source
in vitro [7] = settings: mouse, liver microsomes
in vivo [8] = settings: mouse, iv, 5 mg/kg; remark: listed apart in the source
in vivo [9] = settings: mouse, po, 5 mg/kg
[10] = Intrinsic clearance in rat hepatocytes at 3 uM assessed per million cells; format: ADME, cell-based, Hepatocyte; settings: read-out: CLH
[11] = Passive permeability in human Caco2 cells; format: ADME, cell-based; settings: caco-2
in vivo [12] = settings: rat, po
[13] = Basicity constant, pKa of the compound by UV metric assay; format: physicochemical
[14] = Solubility of compound in pure water; format: physicochemical
[15] = Free drug level in NCr athymic mouse plasma xenografted with human HT-29 cells at 12.5 to 100 mg/kg, po administered as single dose measured at 24 hrs; format: ADME, organism-based; settings: in vivo, dose 12.5-100 mg/kg
[16] = Lipophilicity, logD of the compound at pH 7.4 by LC-MS/MS analysis; format: physicochemical; settings: buffer
[17] = Metabolic stability in human liver microsomes in absence of glutathione; format: ADME, Microsome
in vivo [18] = settings: NCr athymic, mouse, plasma, po, 300 mg/kg
[19] = Solubility of compound in phosphate buffer at pH 6.5; format: physicochemical
[20] = mouse, in vivo, po, 10 mg/kg
[21] = Intrinsic clearance in dog hepatocytes at 3 uM assessed per million cells; format: ADME, cell-based, Canis lupus familiaris, Hepatocyte; settings: read-out: CLH
[22] = Metabolic stability in human liver microsomes in presence of glutathione; format: ADME, Microsome
in vivo [23] = settings: rat
in vitro [24] = settings: CD-1, mouse, hepatocytes
in vitro [25] = settings: human, hepatocytes
in vivo [26] = settings: rat; remark: listed apart in the source

N#Cc1cnc(Nc2cc(NC[C@H]3CNCCO3)c(-c3cccc(F)c3)cn2)cn1
Vd (in vivo [1]): 26.8 L/kg | half-life (in vivo [2]): 4.3 h | clearance (in vivo [3]): 113 mL/min/kg | bioavailability (in vivo [4]): 53%

N#Cc1cnc(Nc2cc(NC[C@@H]3CNCCO3)c(C3CC3)cn2)cn1
Vd (in vivo [1]): 43.9 L/kg | half-life (in vivo [2]): 8.1 h | clearance (in vivo [3]): 112 mL/min/kg | bioavailability (in vivo [4]): 68%

CC(C)(O)C#Cc1cnc(Nc2cnc(C#N)cn2)cc1NC[C@@H]1CNCCO1
Vd (in vivo [1]): 10.4 L/kg | half-life (in vivo [2]): 3.8 h | clearance (in vivo [3]): 138 mL/min/kg | bioavailability (in vivo [4]): 10%

COC(=O)c1cnc(Nc2cnc(C#N)cn2)cc1NCCC1CCNCC1
Vd (in vivo [5]): 60.5 L/kg | clearance (in vivo [6]): 141 mL/min/kg | metabolised at 0.5 h (in vitro [7]): 26% | half-life (in vivo [8]): 11 h | bioavailability (in vivo [9]): 44%

N#Cc1cnc(Nc2cc(NC[C@H]3CNCCO3)c(C(F)(F)F)cn2)cn1 [SRA-737]
hepatocyte CLint at 3 µM [10]: 43.4 µL/min/1e6 cells | permeability [11]: 25 10^-6 cm/s | bioavailability (in vivo [12]): 38% | pKa [13]: 7.87 | solubility [14]: 90 µg/mL (≈ 237 µM) | Vd (in vivo [1]): 9.25 L/kg | Cp(f) [15]: 0.015 µM | logD [16]: 1.47 | half-life (in vivo [2]): 2.9 h | Stabilty [17]: Stable | concentration at 24 h (in vivo [18]): 4 µM | solubility [19]: 1500 µg/mL (≈ 3950 µM) | F [20]: 105% | clearance (in vivo [3]): 44.2 mL/min/kg | hepatocyte CLint at 3 µM [21]: 55 µL/min/1e6 cells | Stabilty [22]: Stable | Vd (in vivo [23]): 4.6 L/kg | hepatocyte CLint at 3 µM (in vitro [24]): 25.7 µL/min/1e6 cells | hepatocyte CLint at 3 µM (in vitro [25]): 2.72 µL/min/1e6 cells | clearance (in vivo [26]): 58.3 mL/min/kg
